Source: ChEMBL document CHEMBL1155799 (Bioorg Med Chem, 2008)

Tests used:
D(4) dopamine receptor = molecular target: T1, D(4) dopamine receptor (Homo sapiens, UniProt P21917)
T1 sequence (P21917 whole entry): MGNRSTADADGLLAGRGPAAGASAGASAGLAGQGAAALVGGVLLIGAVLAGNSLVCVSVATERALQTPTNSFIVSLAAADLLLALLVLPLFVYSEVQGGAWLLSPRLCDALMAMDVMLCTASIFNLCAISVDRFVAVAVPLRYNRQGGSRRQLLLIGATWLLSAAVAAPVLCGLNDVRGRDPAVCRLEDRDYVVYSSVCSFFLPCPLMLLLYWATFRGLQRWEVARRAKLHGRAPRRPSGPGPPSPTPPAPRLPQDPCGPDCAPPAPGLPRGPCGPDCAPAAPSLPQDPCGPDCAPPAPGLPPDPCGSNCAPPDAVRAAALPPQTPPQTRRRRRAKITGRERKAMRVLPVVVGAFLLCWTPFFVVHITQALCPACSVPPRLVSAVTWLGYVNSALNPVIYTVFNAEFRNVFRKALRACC
Description: Binding affinity to human cloned dopamine D4 receptor

D(3) dopamine receptor = D(3) dopamine receptor (Homo sapiens, UniProt P35462)
Description: Binding affinity to human cloned dopamine D3 receptor

[1] = molecular target: T2, 5-hydroxytryptamine receptor 1A (Homo sapiens, UniProt P08908)
T2 sequence (P08908 whole entry): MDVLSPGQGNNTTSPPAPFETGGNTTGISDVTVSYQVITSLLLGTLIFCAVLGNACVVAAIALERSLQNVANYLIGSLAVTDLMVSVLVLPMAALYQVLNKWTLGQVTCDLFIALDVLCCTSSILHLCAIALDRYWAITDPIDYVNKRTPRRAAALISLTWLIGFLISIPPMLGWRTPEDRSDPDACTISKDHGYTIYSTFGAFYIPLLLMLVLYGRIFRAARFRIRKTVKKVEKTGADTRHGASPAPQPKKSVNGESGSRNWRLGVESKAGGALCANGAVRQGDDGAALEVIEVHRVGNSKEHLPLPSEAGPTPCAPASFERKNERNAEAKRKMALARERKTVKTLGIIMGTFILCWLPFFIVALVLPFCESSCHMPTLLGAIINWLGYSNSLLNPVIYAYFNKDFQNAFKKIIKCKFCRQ
Description: Binding affinity to human cloned 5HT1A receptor

[2] = molecular target: 5-hydroxytryptamine receptor 2A (Homo sapiens, UniProt P28223)
Description: Binding affinity to human cloned 5HT2A receptor

[3] = molecular target: T3, 5-hydroxytryptamine receptor 2C (Homo sapiens, UniProt P28335)
T3 sequence (P28335 whole entry): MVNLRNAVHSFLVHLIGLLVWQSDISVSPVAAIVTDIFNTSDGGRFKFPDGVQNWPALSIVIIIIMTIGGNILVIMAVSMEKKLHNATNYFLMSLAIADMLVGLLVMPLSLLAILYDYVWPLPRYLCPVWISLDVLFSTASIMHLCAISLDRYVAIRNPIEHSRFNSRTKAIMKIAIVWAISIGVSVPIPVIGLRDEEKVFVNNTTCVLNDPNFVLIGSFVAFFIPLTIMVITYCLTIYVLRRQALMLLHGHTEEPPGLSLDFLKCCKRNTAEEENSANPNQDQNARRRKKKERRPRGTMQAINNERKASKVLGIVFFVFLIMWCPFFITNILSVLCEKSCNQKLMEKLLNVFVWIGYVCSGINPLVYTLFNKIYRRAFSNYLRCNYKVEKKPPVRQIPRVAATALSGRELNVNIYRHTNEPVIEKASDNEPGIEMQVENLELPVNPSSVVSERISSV
Description: Binding affinity to human cloned 5HT2C receptor

[4] = molecular target: 5-hydroxytryptamine receptor 6 (Homo sapiens, UniProt P50406)
Description: Binding affinity to human cloned 5HT6 receptor

[5] = molecular target: Sodium-dependent dopamine transporter (Homo sapiens, UniProt Q01959)
Description: Binding affinity to human DAT

[6] = molecular target: 5-hydroxytryptamine receptor 2B (Homo sapiens, UniProt P41595)
Description: Binding affinity to human cloned 5HT2B receptor

Mus musculus = species: Mus musculus; assay: animal or person; format: functional; conditions: Swiss Webster, 0.5 h
Description: Blockade of apomorphine-induced climbing stereotypy in Swiss Webster mouse after 30 mins

[7] = molecular target: T4, Muscarinic acetylcholine receptor M1 (Homo sapiens, UniProt P11229)
T4 sequence (P11229 whole entry): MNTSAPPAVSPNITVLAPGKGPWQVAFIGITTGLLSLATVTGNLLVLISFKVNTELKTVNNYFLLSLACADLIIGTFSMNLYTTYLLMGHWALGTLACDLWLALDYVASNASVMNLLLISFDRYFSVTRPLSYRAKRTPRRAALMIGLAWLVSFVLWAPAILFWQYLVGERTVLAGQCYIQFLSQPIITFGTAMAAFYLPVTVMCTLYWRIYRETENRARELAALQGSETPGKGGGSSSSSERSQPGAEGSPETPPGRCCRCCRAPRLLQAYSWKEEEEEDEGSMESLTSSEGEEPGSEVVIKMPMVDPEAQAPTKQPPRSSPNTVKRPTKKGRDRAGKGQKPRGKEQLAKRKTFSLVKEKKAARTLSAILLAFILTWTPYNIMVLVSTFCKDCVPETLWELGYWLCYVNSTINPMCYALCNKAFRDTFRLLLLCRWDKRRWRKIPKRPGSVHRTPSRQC
Description: Binding affinity to human cloned muscarinic M1 receptor

Chain of 5-hydroxytryptamine receptor 6 (P50406 whole entry): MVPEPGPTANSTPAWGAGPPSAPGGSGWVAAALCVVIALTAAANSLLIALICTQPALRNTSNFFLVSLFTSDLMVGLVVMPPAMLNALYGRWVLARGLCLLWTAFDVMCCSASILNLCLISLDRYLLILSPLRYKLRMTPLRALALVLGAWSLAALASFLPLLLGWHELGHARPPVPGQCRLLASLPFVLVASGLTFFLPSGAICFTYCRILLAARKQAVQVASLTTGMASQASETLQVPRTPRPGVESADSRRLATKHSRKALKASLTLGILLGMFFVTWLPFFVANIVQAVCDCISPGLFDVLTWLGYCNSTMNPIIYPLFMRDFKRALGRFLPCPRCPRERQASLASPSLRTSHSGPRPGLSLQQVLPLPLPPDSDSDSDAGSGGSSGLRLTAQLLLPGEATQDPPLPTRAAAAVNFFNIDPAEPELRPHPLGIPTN
Chain of D(3) dopamine receptor (P35462 whole entry): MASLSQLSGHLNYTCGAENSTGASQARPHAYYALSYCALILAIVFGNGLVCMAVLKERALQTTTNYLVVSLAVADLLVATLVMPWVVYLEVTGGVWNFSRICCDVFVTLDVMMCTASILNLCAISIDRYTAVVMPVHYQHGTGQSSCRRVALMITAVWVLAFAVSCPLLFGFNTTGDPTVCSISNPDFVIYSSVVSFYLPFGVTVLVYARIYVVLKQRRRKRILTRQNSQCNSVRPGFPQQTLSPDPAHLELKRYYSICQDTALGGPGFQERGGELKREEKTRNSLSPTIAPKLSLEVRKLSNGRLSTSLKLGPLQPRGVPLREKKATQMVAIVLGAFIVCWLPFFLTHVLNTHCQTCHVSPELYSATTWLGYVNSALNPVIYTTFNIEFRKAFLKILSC
Chain of 5-hydroxytryptamine receptor 2A (P28223 whole entry): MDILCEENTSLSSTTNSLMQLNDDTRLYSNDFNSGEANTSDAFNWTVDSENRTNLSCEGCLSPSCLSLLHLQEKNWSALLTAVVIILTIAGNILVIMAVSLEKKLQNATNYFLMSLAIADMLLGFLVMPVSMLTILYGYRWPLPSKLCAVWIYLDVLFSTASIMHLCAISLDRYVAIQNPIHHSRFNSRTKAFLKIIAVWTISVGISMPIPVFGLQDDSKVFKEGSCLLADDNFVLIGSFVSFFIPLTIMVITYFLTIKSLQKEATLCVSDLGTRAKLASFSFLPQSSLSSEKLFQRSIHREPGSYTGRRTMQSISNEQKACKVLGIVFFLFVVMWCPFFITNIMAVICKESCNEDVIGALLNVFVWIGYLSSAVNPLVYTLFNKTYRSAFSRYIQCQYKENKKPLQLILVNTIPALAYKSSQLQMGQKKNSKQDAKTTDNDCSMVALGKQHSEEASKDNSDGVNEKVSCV
Chain of 5-hydroxytryptamine receptor 2B (P41595 whole entry): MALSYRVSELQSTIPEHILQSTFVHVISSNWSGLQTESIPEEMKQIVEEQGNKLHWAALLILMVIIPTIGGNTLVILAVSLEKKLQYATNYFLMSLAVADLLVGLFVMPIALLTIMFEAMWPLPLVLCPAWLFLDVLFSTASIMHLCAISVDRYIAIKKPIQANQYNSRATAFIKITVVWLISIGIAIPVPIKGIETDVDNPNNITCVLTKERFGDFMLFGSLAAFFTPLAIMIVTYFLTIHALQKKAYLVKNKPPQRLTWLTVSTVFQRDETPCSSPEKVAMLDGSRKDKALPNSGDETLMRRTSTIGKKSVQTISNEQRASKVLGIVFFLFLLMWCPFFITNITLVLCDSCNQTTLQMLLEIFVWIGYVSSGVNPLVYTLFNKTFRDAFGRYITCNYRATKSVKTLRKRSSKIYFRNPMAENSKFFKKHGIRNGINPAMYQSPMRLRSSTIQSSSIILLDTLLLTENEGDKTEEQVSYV
Chain of Sodium-dependent dopamine transporter (Q01959 whole entry): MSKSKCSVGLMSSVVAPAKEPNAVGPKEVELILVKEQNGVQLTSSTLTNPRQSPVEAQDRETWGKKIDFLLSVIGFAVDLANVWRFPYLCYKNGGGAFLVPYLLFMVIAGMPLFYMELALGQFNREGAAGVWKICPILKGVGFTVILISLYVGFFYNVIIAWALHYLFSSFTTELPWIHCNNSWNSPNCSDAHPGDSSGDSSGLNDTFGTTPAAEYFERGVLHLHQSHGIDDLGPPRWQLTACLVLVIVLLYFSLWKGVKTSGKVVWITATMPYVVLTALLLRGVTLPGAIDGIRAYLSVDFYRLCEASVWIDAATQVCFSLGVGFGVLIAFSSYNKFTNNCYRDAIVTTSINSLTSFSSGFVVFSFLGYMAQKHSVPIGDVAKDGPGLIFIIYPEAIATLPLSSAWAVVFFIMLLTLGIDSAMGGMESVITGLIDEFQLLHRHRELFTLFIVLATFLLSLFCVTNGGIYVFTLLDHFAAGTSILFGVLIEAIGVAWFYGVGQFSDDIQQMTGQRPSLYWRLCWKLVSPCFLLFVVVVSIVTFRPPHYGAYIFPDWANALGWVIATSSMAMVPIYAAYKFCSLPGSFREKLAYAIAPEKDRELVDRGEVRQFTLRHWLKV

For `O=C(CCCN1CC2CC1CN2c1ccc(Cl)cc1)c1ccc(F)cc1` (stereo not given), the Ki (D(4) dopamine receptor) was 520 nM and the Ki (D(3) dopamine receptor) was 220 nM.

In the case of `O=C(CCCN1C2CCC1CC(c1ccccc1)C2)c1ccc(F)cc1` (stereo not given), the Ki [1] is reported as 414 nM, the Ki [2] is reported as 106 nM and the Ki [3] is reported as 1.06 µM.

Work on `O=C(CCCN1CC2CCC(C1)N2c1ccccc1)c1ccc(F)cc1` yielded a Ki (D(4) dopamine receptor) of 2100 nM and a Ki (D(3) dopamine receptor) of 600 nM.

Work on `O=C(CCCN1CCC(O)(c2ccc(Cl)cc2)C1)c1ccc(F)cc1` (single isomer, unassigned; (+)) yielded a Ki [1] of 772 nM.

`O=C(CCCN1CCCN(c2ccc(Cl)cc2)CC1)c1ccc(F)cc1` gave a Ki [4] of 296 nM, a Ki [5] of 1150 nM and a Ki [6] of 495 nM. For the same molecule, the ED50 (Mus musculus) was 35.8 µmol/kg.

For `O=C1Cc2cc(CCN3CCN(c4nsc5ccccc45)CC3)c(Cl)cc2N1` [ZIPRASIDONE], the Ki [1] was 2.5 nM, the Ki [4] was 76 nM and the Ki [7] was 5.1 µM.

`O=C(CCCN1CCN(c2ccc(Cl)cc2)CC1)c1ccc(F)cc1` was tested, and the Ki [1] was 90.9 nM and the Ki [3] was 3.55 µM.

For `O=C(CCCN1C2CCC1CC(O)(c1ccccc1)C2)c1ccc(F)cc1` (stereo not given), the Ki [1] was 37.6 nM, the Ki [2] was 12.3 nM and the Ki [3] was > 10 µM.
